The source of these data is ChEMBL document CHEMBL1139194, “Antitumor agents. 256. Conjugation of paclitaxel with other antitumor agents: evaluation of novel conjugates as cytotoxic agents” (Bioorg Med Chem Lett, 2007).

Data set [1] concerns 1A9. The data set is described as follows: Cytotoxicity against human 1A9 cells by sulforhodamine B assay. It is filed as functional. The conditions noted are these: read-out: ED50 (the source's name). For orientation: In SRB staining, fixed cells bind dye roughly in proportion to their protein.
The test system of data set [2] is A549. The data set is described as follows: Cytotoxicity against human A549 cells by sulforhodamine B assay. It is filed as functional. The conditions noted are these: read-out: ED50 (the source's name).
In data set [3] the test system is MCF7. The data set is described as follows: Cytotoxicity against human MCF7 cells by sulforhodamine B assay. Type of data set: functional. The note with it: read-out: ED50 (the source's name).
Data set [4] concerns LNCaP. The experiment in a line: Cytotoxicity against human LNCAP cells by sulforhodamine B assay. Type of data set: functional. The note with it: read-out: ED50 (the source's name).
In data set [5] the test system is PC-3. The data set is described as follows: Cytotoxicity against human PC3 cells by sulforhodamine B assay. It is filed as functional. The note with it: read-out: ED50 (the source's name).
Data set [6] deals with DU-145. The experiment in a line: Cytotoxicity against human DU145 cells by sulforhodamine B assay. Type of data set: functional. The note with it: read-out: ED50 (the source's name).
Data set [7] concerns KB. The data set is described as follows: Cytotoxicity against human KB cells by sulforhodamine B assay. It is filed as functional. The conditions noted are these: read-out: ED50 (the source's name).
For data set [8], the system named is HUVEC. The data set is described as follows: Antiangiogenesis activity against HUVEC cells. It is filed as functional. The conditions noted are these: Homo sapiens, read-out: ED50 (the source's name).
A short description of data set [9]: Cytotoxicity against multi drug-resistant human KBVIN cells at 20 ug/mL by sulforhodamine B assay. It is filed as functional.
Data set [10] is described as follows: Cytotoxicity against multi drug-resistant human KBVIN cells by sulforhodamine B assay. It is filed as functional. The conditions noted are these: read-out: ED50 (the source's name).
Data set [11] is described as follows: Cytotoxicity against human MRC5 cells by sulforhodamine B assay. It is filed as cell-based. The note with it: read-out: ED50 (the source's name).

Take `COc1ccc2c(c1)[C@@H](NC(=O)CCC(=O)O[C@@H](C(=O)O[C@H]1C[C@@]3(O)[C@@H](OC(=O)c4ccccc4)[C@@H]4[C@]5(OC(C)=O)CO[C@@H]5C[C@H](O)[C@@]4(C)C(=O)[C@H](OC(C)=O)C(=C1C)C3(C)C)[C@@H](NC(=O)c1ccccc1)c1ccccc1)CCc1cc(OC)c(OC)c(OC)c1-2`: the EC50 in data set [1] came to 0.014 µM; in data set [2], 0.0285 µM; in [3], 0.0292 µM; in data set [4], 0.0237 µM; in data set [5], 0.0704 µM; in data set [6] it was 0.0344 µM. Further, the EC50 in data set [7] is 0.0216 µM; in data set [8] it was 0.0158 µM. Besides, the inhibition (in general, the drop in the measured response relative to a control, in per cent) at 20 µg/mL in data set [9] was less than 50%.
As for `COc1cc2c(c(OC)c1OC(=O)CCC(=O)O[C@@H](C(=O)O[C@H]1C[C@@]3(O)[C@@H](OC(=O)c4ccccc4)[C@@H]4[C@]5(OC(C)=O)CO[C@@H]5C[C@H](O)[C@@]4(C)C(=O)[C@H](OC(C)=O)C(=C1C)C3(C)C)[C@@H](NC(=O)c1ccccc1)c1ccccc1)-c1ccc(OC)c(=O)cc1[C@@H](NC(C)=O)CC2`, the EC50 amounted to 0.0106 µM in data set [1]; 0.0273 µM in data set [2]; 0.0265 µM in [3]; 0.0129 µM in [4]; 0.0507 µM in data set [5]; 0.0319 µM in data set [6]. Moreover, the EC50 in data set [7] came out at 0.019 µM; in data set [8] it was 0.0138 µM. Further, in data set [9], the inhibition at 20 µg/mL was less than 50%.
Take `COc1cc2c(c(OC)c1OC(=O)CCC(=O)O[C@@H](C(=O)O[C@H]1C[C@@]3(O)[C@@H](OC(=O)c4ccccc4)[C@@H]4[C@]5(OC(C)=O)CO[C@@H]5C[C@H](O)[C@@]4(C)C(=O)[C@H](OC(C)=O)C(=C1C)C3(C)C)[C@@H](NC(=O)c1ccccc1)c1ccccc1)-c1ccc(SC)c(=O)cc1[C@@H](NC(C)=O)CC2`: the EC50 in data set [1] was found to be 0.0103 µM; in data set [2], 0.0232 µM; in [3] it was 0.0247 µM; in data set [4], 0.0195 µM; in data set [5] it was 0.0718 µM; in data set [6], 0.0298 µM. Moreover, the EC50 in [7] worked out at 0.017 µM; in data set [8] it was 0.00933 µM. The inhibition at 20 µg/mL in [9] was less than 50%.
In the case of `CC[C@@]1(O)C(=O)OCn2c1cc1c(c2=O)Cc2c-1nc1ccccc1c2/C=N/CCCC(=O)O[C@@H](C(=O)O[C@H]1C[C@@]2(O)[C@@H](OC(=O)c3ccccc3)[C@@H]3[C@]4(OC(C)=O)CO[C@@H]4C[C@H](O)[C@@]3(C)C(=O)[C@H](OC(C)=O)C(=C1C)C2(C)C)[C@@H](NC(=O)c1ccccc1)c1ccccc1`, the EC50 in [1] came to 0.001 µM; in data set [2], 0.0019 µM; in data set [3] it was 0.0341 µM; in data set [4], 0.00034 µM; in data set [5], 0.0194 µM; in data set [6], 0.0019 µM. In addition, the EC50 turned out to be 0.0015 µM in data set [7], 0.0563 µM in [10] and 0.00098 µM in data set [8]. Further, the CC50 in data set [11] was 0.244 µM.
With `CC[C@@]1(O)C(=O)OCn2c1cc1c(c2=O)Cc2c-1nc1ccccc1c2/C=N/CCC(=O)O[C@@H](C(=O)O[C@H]1C[C@@]2(O)[C@@H](OC(=O)c3ccccc3)[C@@H]3[C@]4(OC(C)=O)CO[C@@H]4C[C@H](O)[C@@]3(C)C(=O)[C@H](OC(C)=O)C(=C1C)C2(C)C)[C@@H](NC(=O)c1ccccc1)c1ccccc1`, the EC50 is 0.0016 µM in [1]; 0.0026 µM in data set [2]; 0.0267 µM in [3]; 0.003 µM in data set [4]; 0.0148 µM in data set [5]; 0.0037 µM in [6]. Moreover, the EC50 in data set [7] was 0.0013 µM; in [10], 0.0624 µM; in data set [8], 0.00073 µM. Moreover, the CC50 in data set [11] came to 0.178 µM.
